The target of assay [1] is T1, LdtMt2 (Mycobacterium tuberculosis, UniProt I6Y9J2). Description: biochemical. The assay is classed as biochemical.
Assay [2] concerns the target T1, LdtMt2. Description: biochemical. Particulars: for ΔTm at 500 µM: pH 7.5, read-out: Shift in melting temperature compared to unmodified LdtMt2, 500 µM; for ΔTm at 1000 µM: pH 7.5, read-out: Shift in melting temperature compared to unmodified LdtMt2, 1 mM; for Shift in melting temperature compared to unmodified LdtMt2, 500 µM / Shift in melting temperature compared to unmodified LdtMt2, 1 mM / Tm 500 µM / Tm 1 mM: pH 7.5. The assay is classed as binding. The method, then: Differential scanning fluorometric thermal shift assays[32]
LdtMt2 (5 µM) was incubated with peptidoglycan fragments (500 µM or 1 mM) in buffer (50 mM tris pH 7.5) for 30 minutes at room temperature, after which time SYPRO Orange (final concentration 6x, according to manufacturer’s definition, Invitrogen) was added. Melting temperatures […]
See Methods for experimental details.
Table S1. […] The melting

Assay [3] concerns the target DAAO and HRP. The experiment in a line: Transpeptidase interference assay (no LdtMt2, D-Ala as substrate). To be noted: for Transpeptidase interference assay pIC50 (mean ± SD): DAAO 2 U/mL, HRP 2 U/mL, FAD 40 µM, Amplex red 10 µM, 30 min rt, then D-alanine 500 nM, pH 8.0, quadruplicate. It is filed as biochemical. Here is the method:
The transpeptidase interference assay was performed as described above, with the modification that the LdtMt2 mixture was replaced by 5 µL assay buffer, and the substrate was replaced by D-Ala (500 nM final concentration). Data were analysed using Prism 10 (GraphPad).
Figure S14. Dose-response curves of the transpeptidase interference assay with compounds
14-24. The specified inhibitors were incubated with DAAO (2 U/mL), HRP (2 U/mL), FAD (40 μM) and
Amplex red (10 μM) in 50 mM sodium phosphate pH 8.0 with 100 mM NaCl at room temperature for 30
minutes, after which time D-alanine (500 nM) was added. The pIC50 values and compound structures
See Methods for experimental details. Individual data points are shown.

The target in assay [4] is T1, LdtMt2. To be noted: thiol-reactive fluorescent probe assay; quadruplicate; ref 6,7 (supplement); cited from earlier work.
For assay [5], the target named is T1, LdtMt2. Particulars: pH 7.5.
Assay [6] deals with T1, LdtMt2. The assay is classed as biochemical. Particulars: pH 7.5.
The target of assay [7] is T1, LdtMt2. Particulars: pH 8.
Assay [8] addresses T1, LdtMt2. Particulars: cited from earlier work.
The mark [9] stands for this setting: LdtMt2 500 nM, 30 min preincubation rt, substrate 1 35 µM, pH 8.0, 37 °C, n=3, read-out: pIC50, LdtMt2 inhibition by non-substrate peptidoglycan fragments (converted).

Like-named read-outs stand apart in the source and are kept apart here. *1 amine or outer side, *2 acyl side, *3 side chain or, on linkers, in order; H or OH if unused. Where a SMILES comes first, the peptide text is derived from it. [ ]: non-standard residue; d: D form. d(γGlu) = O=C(O)[C@@H](CCC(=O)[*:2])N[*:1]

In general, Km refers to the concentration of substrate that gives half-maximal velocity. Broadly, the kcat/KM is the turnover number divided by the Michaelis constant. By kcat/Km is commonly meant the turnover number divided by the Michaelis constant.

T1 sequence (I6Y9J2 56-408): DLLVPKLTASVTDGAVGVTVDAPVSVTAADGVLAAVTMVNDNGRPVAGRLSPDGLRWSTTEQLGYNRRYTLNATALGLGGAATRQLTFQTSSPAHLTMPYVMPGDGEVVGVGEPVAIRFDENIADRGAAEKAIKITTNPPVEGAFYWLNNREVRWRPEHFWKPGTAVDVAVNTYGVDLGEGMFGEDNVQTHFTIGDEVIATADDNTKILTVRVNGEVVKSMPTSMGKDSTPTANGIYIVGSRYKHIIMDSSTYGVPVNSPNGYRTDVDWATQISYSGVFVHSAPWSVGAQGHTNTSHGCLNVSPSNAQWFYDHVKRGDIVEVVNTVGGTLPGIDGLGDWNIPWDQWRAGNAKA

As for `C[C@H](N)C(=O)N[C@H](CCC(=O)N[C@@H](CCCCN)C(=O)N[C@H](C)C(=O)N[C@H](C)C(=O)O)C(=O)O` [Compound 8, L-Ala-D-iGlu-L-Lys-D-Ala-D-Ala, reference compound], the IC50 in assay [1] (setting [9]) was 15.8 µM. Also, in assay [2], the ΔTm at 500 µM turned out to be 1.5 °C and the ΔTm at 1000 µM turned out to be 2 °C.

`C[C@H](N)C(=O)N[C@H](CCC(=O)N[C@@H](CCCCN)C(=O)N[C@H](C)C(=O)O)C(=O)O` [Compound 10, L-Ala-D-iGlu-L-Lys-D-Ala, reference compound] (H-A[d(γGlu)]K[dA]-OH): in assay [1] (setting [9]), the IC50 was 15.8 µM. For the same compound, in assay [2], the ΔTm at 500 µM came to 1.5 °C and the ΔTm at 1000 µM came out at 3 °C.

For `C[C@H](N)C(=O)N[C@H](CCC(=O)N[C@@H](CCC[C@@H](N)C(=O)O)C(=O)O)C(=O)O` [Compound 12, reference compound], in assay [2], the ΔTm at 500 µM came out at 0.5 °C and the ΔTm at 1000 µM amounted to 1 °C.

For `N[C@H](CCC[C@H](NC(=O)CC[C@@H](N)C(=O)O)C(=O)O)C(=O)O` [Compound 13, D-γ-Glu-m-DAP, reference compound], in assay [2], the ΔTm at 500 µM was 1 °C and the ΔTm at 1000 µM is 1.5 °C.

Turning to `C[C@@H](O)[C@H]1C(=O)N2C(C(=O)O)=C(S[C@@H]3CN[C@H](C(=O)N(C)C)C3)[C@H](C)[C@H]12` [Compound 14, Meropenem], in assay [1] (LdtMt2 500 nM, 30 min preincubation rt, substrate 1 35 µM, 50 mM sodium phosphate pH 8.0, 100 mM NaCl, 37 °C, quadruplicate, read-out: Transpeptidase activity assay pIC50 (mean ± SD) (converted)), the IC50 was 0.631 µM. In addition, in assay [3], the “Transpeptidase interference assay pIC50 (mean ± SD)” value was less than 4.0. Besides, in assay [4], the “Fluorogenic probe assay pIC50 (mean ± SD)” value is 5.9 ± 0.04.

Turning to `C[C@@H](O)[C@H]1C(=O)N2C(C(=O)O)=C([C@H]3CCCO3)S[C@H]12` [Compound 15, Faropenem], in assay [3], the “Transpeptidase interference assay pIC50 (mean ± SD)” value is given as less than 4.0.

Regarding `O=c1c2ccccc2[se]n1-c1ccccc1` [Compound 24, Ebselen], the “Transpeptidase activity assay pIC50 (mean ± SD)” value in assay [1] (LdtMt2 500 nM, 30 min preincubation rt, substrate 1 35 µM, 50 mM sodium phosphate pH 8.0, 100 mM NaCl, 37 °C, quadruplicate) stood at 6.8 ± 0.2. Also, the “Transpeptidase interference assay pIC50 (mean ± SD)” value in assay [3] is on record as 5.0 ± 0.4. For the same compound, the “Interference with the DAAO/HRP assay” value in assay [3] (inhibition of DAAO and HRP, in words) is on record as “cause interference”. In assay [4], the “Fluorogenic probe assay pIC50 (mean ± SD)” value is 6.7 ± 0.04.

For “GlcNAc-MurNAc-L-Ala-D-iGluNH2-m-DAPNH2-D-Ala [Compound 1]”, the “Covalent adducts of LdtMt2 (SPE-MS)” value in assay [5] is “no covalent adducts of LdtMt2 were observed”. For the same compound, in assay [2], the “Shift in melting temperature compared to unmodified LdtMt2, 500 µM” value is “+1.5 °C”; the “Shift in melting temperature compared to unmodified LdtMt2, 1 mM” value (shortened to “Shift in melting temperature … 1 mM”) is “+2.0 °C”; the “Tm 500 µM” value amounted to 45 °C; the “Tm 1 mM” value turned out to be 45.5 °C. Also, in assay [6], the “LdtMt2 turnover / transpeptidase product formation (LC-MS)” value is given as “led to formation of products”. In addition, in assay [7], the Reaction rate came out at 120.0 ± 1.7 RFU min^−1 and the Vmax result is given as “Ambiguous”.

As to “GlcNAc-MurNAc-L-Ala-D-iGluNH2-m-DAPNH2-D-Ala-D-Ala [Compound 4]”, the “LdtMt2 inhibition by non-substrate peptidoglycan fragments, in words” value in assay [1] (pH 8) is “modest LdtMt2 inhibition”. For the same compound, in assay [2], the “Shift in melting temperature … 1 mM” value was “+2.5 °C”; the “Tm 500 µM” value was determined as 45.5 °C; the “Tm 1 mM” value is 46 °C. Moreover, in assay [6], the “LdtMt2 turnover / transpeptidase product formation (LC-MS)” value was “did not manifest evidence for reaction”.

“GlcNAc-Muramitol-L-Ala-D-iGluNH2-m-DAPNH2-D-Ala [Compound 2]”: in assay [6], the “LdtMt2 turnover / transpeptidase product formation (LC-MS)” value is recorded as “led to formation of products”.

Regarding “GlcNAc-muramitol-L-Ala-D-iGluNH2-m-DAPNH2-D-Ala-D-Ala [reduced pentapeptide monomer of Mtb]”, in assay [8], the “LdtMt2 substrate or not” value is “is not an LdtMt2 substrate”.

Regarding “L-Ala-D-iGluNH2-L-Lys-D-Ala [Compound 11]”, the “LdtMt2 turnover / transpeptidase product formation (LC-MS)” value in assay [6] was “is not a substrate for LdtMt2”.

Regarding “lactoyl-L-Ala-D-iGluNH2-m-DAPNH2-D-Ala [Compound 3]”, in assay [5], the “Covalent adducts of LdtMt2 (SPE-MS)” value is recorded as “no covalent adducts of LdtMt2 were observed”. Also, in assay [2], the “Shift in melting temperature compared to unmodified LdtMt2, 500 µM” value is “+1.5 °C”; the “Shift in melting temperature … 1 mM” value was “+2.0 °C”; the “Tm 500 µM” value stood at 45 °C; the “Tm 1 mM” value is 45.5 °C. In assay [6], the “LdtMt2 turnover / transpeptidase product formation (LC-MS)” value is “led to formation of products”. In assay [7], the Km came to 6.2 mM, the Reaction rate stood at 224.2 ± 2.6 RFU min^−1, the Vmax amounted to 1.4 ± 0.5 and the kcat stood at 2.6 ± 0.9. Besides, in assay [7], the kcat/KM amounted to 0.07 M⁻¹ s⁻¹ and the kcat/Km came to 0.07 M⁻¹ s⁻¹.

The values are drawn from paper PMC11410929, “Biochemical and crystallographic studies of L,D-transpeptidase 2 from Mycobacterium tuberculosis with its natural monomer substrate” (Communications Biology, 2024).
